Reference: US7671056B2, “Piperazine-piperidine antagonists and agonists of the 5-HT1A receptor” (Wyeth LLC, priority 2005, dated 2010)
pEC50, pIC50, pKi: −log10 of the molar value. Where two headings read alike, the source gives them in different places.

Columns and labels:
human 5-HT1A receptor [1] = molecular target: T1, human 5-HT1A receptor (Homo sapiens, UniProt P08908); assay: cAMP measurements, antagonist mode: block of 8-OH-DPAT-induced inhibition of forskolin-stimulated cAMP; format: cell-based
T1 construct: expressed in transfected cells
T1 sequence (P08908 1-422): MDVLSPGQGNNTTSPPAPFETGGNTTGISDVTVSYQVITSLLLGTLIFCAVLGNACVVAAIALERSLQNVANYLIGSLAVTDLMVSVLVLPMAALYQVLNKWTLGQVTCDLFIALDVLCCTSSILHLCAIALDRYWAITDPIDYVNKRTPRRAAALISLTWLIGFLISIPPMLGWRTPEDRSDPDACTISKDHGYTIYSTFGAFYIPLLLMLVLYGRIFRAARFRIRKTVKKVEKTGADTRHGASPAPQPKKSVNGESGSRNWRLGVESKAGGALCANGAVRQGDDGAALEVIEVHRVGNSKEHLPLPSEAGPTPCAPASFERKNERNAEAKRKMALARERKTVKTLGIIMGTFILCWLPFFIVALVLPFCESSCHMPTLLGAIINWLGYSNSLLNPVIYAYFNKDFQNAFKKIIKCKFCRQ
Description: The PCR cloning of the human 5-HT1A receptor subtype from a human genomic library has been described previously (Chanda et al., Mol. Pharmacol., 43:516 (1993)). A stable Chinese hamster ovary cell line expressing the human 5-HT1A receptor subtype (5-HT1A.CHO cells) was employed throughout this study. Cells were maintained in DMEM supplemented with 10% fetal calf serum, non-essential amino acids and penicillin/streptomycin. Measurements were performed as described in Dunlop, J. et al., supra. Assays were performed by incubating the cells with DMEM containing 25 mM HEPES, 5 mM theophylline and 10 μM pargyline for a period of 20 minutes at 37° C. […] The reaction was terminated by removal of the media and addition of 0.5 ml ice cold assay buffer. Plates were stored at −20° C. prior to assessment of cAMP formation by a cAMP SPA assay (Amersham). Compounds of the invention were tested according to the protocol described. […] Compounds having 5-HT1A antagonist activity show no effect on forskolin-induced increases in cAMP levels on their own, but block the 8-OH-DPAT-induced inhibition of forskolin-stimulated increases in cAMP levels. Results are required as IC50 values (Table 1, “Antagonist Activity IC50”)

human 5-HT1A receptor [2] = molecular target: T1, human 5-HT1A receptor; assay: Radioligand binding with [3H]8-OH-DPAT on membranes of 5-HT1A.CHO cells
Description: The PCR cloning of the human 5-HT1A receptor subtype from a human genomic library has been described previously (Chanda et al., Mol. Pharmacol., 43:516 (1993)). A stable Chinese hamster ovary cell line expressing the human 5-HT1A receptor subtype (5-HT1A.CHO cells) was employed throughout this study. Cells were maintained in DMEM supplemented with 10% fetal calf serum, non-essential amino acids and penicillin/streptomycin. Radioligand binding assays were performed as described in Dunlop, J. et al., J. Pharmacol. and Toxicol. Methods 40: 47-55 (1998), which is incorporated by reference. Cells were grown to 95-100% confluency as a monolayer before membranes were harvested for binding studies. Cells were gently scraped from the culture plates, transferred to centrifuge tubes, and washed twice by centrifugation (2000 rpm for 10 min., 4° C.) in buffer (50 mM Tris; pH 7.5). The resulting pellets were aliquoted and placed at −80° C. On the day of assay, the cells were thawed on ice, and resuspended in buffer. Studies were conducted using [^3H]8-OH-DPAT as the radioligand. The binding assay was performed in 96 well microtiter plates in a final total volume of 250 μL of buffer. Competition experiments were performed by using seven different concentrations of unlabelled drug and a final ligand concentration of 1.5 nM. Non-specific binding was determined in the presence of 10 μM 5HT. Saturation analysis was conducted by using [^3H]8-OH-DPAT at concentrations ranging from 0.3-30 nM. Following a 30 minute incubation at room temperature, the reaction was terminated by the addition of ice cold buffer and rapid filtration using a M-96 Brandel Cell Harvester (Gaithersburg, Md.) through a GF/B filter presoaked for 30 minutes in 0.5% polyethyleneimine. Table 1 provides Ki values for the tested compounds.

human 5-HT1A receptor [3] = molecular target: T1, human 5-HT1A receptor; assay: cAMP measurements, agonist mode: inhibition of forskolin-induced increase in cAMP; format: cell-based; conditions: forskolin 1 uM, 5-HT1A.CHO cells
Description: The PCR cloning of the human 5-HT1A receptor subtype from a human genomic library has been described previously (Chanda et al., Mol. Pharmacol., 43:516 (1993)). A stable Chinese hamster ovary cell line expressing the human 5-HT1A receptor subtype (5-HT1A.CHO cells) was employed throughout this study. Cells were maintained in DMEM supplemented with 10% fetal calf serum, non-essential amino acids and penicillin/streptomycin.
Measurements were performed as described in Dunlop, J. et al., supra. Assays were performed by incubating the cells with DMEM containing 25 mM HEPES, 5 mM theophylline and 10 μM pargyline for a period of 20 minutes at 37° C. Functional activity was assessed by treating the cells with forskolin (1 uM final concentration) followed immediately by test compound (6 different concentrations) for an additional 10 minutes at 37° C. In separate experiments, 6 concentrations of antagonist were preincubated for 20 min prior to the addition of 10 nM 8-OH-DPAT and forskolin. The reaction was terminated by removal of the media and addition of 0.5 ml ice cold assay buffer. Plates were stored at −20° C. prior to assessment of cAMP formation by a cAMP SPA assay (Amersham). […]

[4] = 10 nM 8-OH-DPAT and forskolin, 5-HT1A.CHO cells, read-out: Antagonist Activity IC50
[5] = [3H]8-OH-DPAT 1.5 nM, 5-HT1A.CHO cell membranes, read-out: 5-HT1A Affinity Ki

Structure (SMILES) | pIC50 (human 5-HT1A receptor [1]; [4]) | pKi (human 5-HT1A receptor [2]; [5]) | pEC50 (human 5-HT1A receptor [3]) | pIC50 (human 5-HT1A receptor [1]) | pKi (human 5-HT1A receptor [2])
c1cnc2c(N3CCC(N4CCN(c5cccc6[nH]ccc56)CC4)CC3)cccc2c1 [D, 8-{4-[4-(1H-indole-4-yl)-1-piperazinyl]-1-piperidinyl}quinoline] |  | 9.23 |  | 7.62 | 
Clc1cc(N2CCC(N3CCN(c4cc(Cl)cc5cccnc45)CC3)CC2)c2ncccc2c1 [Example 4, 6-chloro-8-{4-[4-(6-chloro-8-quinolinyl)-1-piperazinyl]-1-piperidinyl}quinoline] |  | 6.30 |  |  | 
Fc1cc(N2CCN(C3CCN(c4cc(Cl)cc5cccnc45)CC3)CC2)c2ncccc2c1 [Example 5, 8-{4-[1-(6-chloro-8-quinolinyl)-4-piperidinyl]-1-piperazinyl}-6-fluoroquinoline] |  | 6.97 |  |  | 
FC(F)(F)c1ccc(N2CCN(C3CCN(c4cccc5cccnc45)CC3)CC2)c2ncccc12 [Example 12, 8-{4-[1-(8-quinolinyl)-4-piperidinyl]-1-piperazinyl}-5-(trifluoromethyl)quinoline] | 7.45 | 8.52 |  |  | 
COc1ccc(N2CCN(C3CCN(c4cccc5cccnc45)CC3)CC2)c2ncccc12 [Example 14, 5-Methoxy-8-{4-[1-(8-quinolinyl)-4-piperidinyl]-1-piperazinyl}-quinoline] | 7.19 | 8.84 |  |  | 
Clc1cc(N2CCC(N3CCN(c4coc5ccccc45)CC3)CC2)c2ncccc2c1 [Example 16, 8-{4-[4-(1-Benzofuran-3-yl)-1-piperazinyl]-1-piperidinyl}-6-chloroquinoline] | 5.97 | 6.83 |  |  | 
Fc1ccc2occ(N3CCN(C4CCN(c5ccc(F)c6cccnc56)CC4)CC3)c2c1 [F, 5-fluoro-8-{4-[4-(5-fluoro-1-benzofuran-3-yl)-1-piperazinyl]-1-piperidinyl}quinoline] | 7.97 | 8.77 |  |  | 
COc1ccccc1N1CCN(C2CCN(c3csc4ccccc34)CC2)CC1 [G, 1-[1-(1-benzothien-3-yl)-4-piperidinyl]-4-(2-methoxyphenyl)piperazine] |  | 7.57 | 7.66 |  | 
COc1ccccc1N1CCN(C2CCN(c3noc4ccccc34)CC2)CC1 [H, 3-{4-[4-(2-methoxyphenyl)-1-piperazinyl]-1-piperidinyl}-1,2-benzisoxazole] |  | 8.84 | 8.60 |  | 
Clc1cc(N2CCC(N3CCN(c4cccc5[nH]ccc45)CC3)CC2)c2ncccc2c1 [I, 6-Chloro-8-{4-[4-(1H-indole-4-yl)-1-piperazinyl]-1-piperidinyl}quinoline] |  |  |  |  | 7.39
COc1cc(N2CCN(C3CCN(c4c(F)ccc5cccnc45)CC3)CC2)c2ncccc2c1 [J, 8-{4-[1-(7-Fluoroquinolin-8-yl)piperidin-4-yl]piperazin-1-yl}-6-methoxyquinoline] | 8.00 | 9.21 |  |  | 
COc1cc(N2CCN(C3CCN(Cc4cccc5cccnc45)CC3)CC2)c2ncccc2c1 [M, 6-Methoxy-8-{4-[1-(quinolin-8-ylmethyl)piperidin-4-yl]piperazin-1-yl}quinoline] | 6.75 | 7.12 |  |  | 
COc1cc(N2CCN(C3CCN(c4ccc(F)c5c(OC)cc(C(F)(F)F)nc45)CC3)CC2)c2ncccc2c1 [N, 5-fluoro-4-methoxy-8-(4-(4-(6-methoxyquinolin-8-yl)piperazin-1-yl)piperidin-1-yl)-2-(trifluoromethyl)quinoline] |  |  |  | 8.04 | 8.69
COc1cc(N2CCN(C3CCN(c4ccc(F)c5cccnc45)CC3)CC2)c2ncccc2c1 [P, 5-Fluoro-8-(4-(4-(6-methoxyquinolin-8-yl)piperazin-1-yl)piperidin-1-yl)-quinoline] | 8.43 |  |  |  | 

The next lines start with results.

pIC50 (human 5-HT1A receptor [1]; [4]) | pKi (human 5-HT1A receptor [2]; [5]) | pEC50 (human 5-HT1A receptor [3]) | Structure (SMILES) | pIC50 (human 5-HT1A receptor [1]) | pKi (human 5-HT1A receptor [2])
8.41 | 9.40 |  | COc1cc(N2CCN(C3CCN(c4cccc5cccnc45)CC3)CC2)c2ncccc2c1 [A, 6-Methoxy-8-{4-[1-(8-quinolinyl)-4-piperidinyl]-1-piperazinyl}quinoline] |  | 
7.60 | 9.34 |  | Fc1cc(N2CCN(C3CCN(c4cccc5cccnc45)CC3)CC2)c2ncccc2c1 [B, 6-fluoro-8-{4-[1-(8-quinolinyl)-4-piperidinyl]-1-piperazinyl}quinoline] |  | 
 | 9.62 | 8.16 | Fc1ccc(N2CCC(N3CCN(c4cccc5cccnc45)CC3)CC2)c2ncccc12 [C, 5-fluoro-8-{4-[4-(8-quinolinyl)-1-piperazinyl]-1-piperidinyl}-quinoline] |  | 
 | 9.42 | 8.62 | c1cc2c(c(N3CCN(C4CCN(c5cccc6cccnc56)CC4)CC3)c1)OCCO2 [E, 8-{4-[4-(2,3-dihydro-1,4-benzo[1,4]dioxane-5-yl)-1-piperazinyl]-1-piperidinyl}quinoline] |  | 
 | 9.40 | 8.00 | c1cnc2c(N3CCC(N4CCN(c5cccc6cccnc56)CC4)CC3)cccc2c1 [Example 3, 8-{4-[1-(8-quinolinyl)-4-piperidinyl]-1-piperazinyl}quinoline] |  | 
 | 9.51 | 7.70 | Clc1ccc(N2CCN(C3CCN(c4cccc5cccnc45)CC3)CC2)c2ncccc12 [Example 8, 5-chloro-8-{4-[1-(8-quinolinyl)-4-piperidinyl]-1-piperazinyl}quinoline] |  | 
 | 9.08 | 8.48 | Cc1ccc2cccc(N3CCN(C4CCN(c5cccc6cccnc56)CC4)CC3)c2n1 [Example 10, 2-methyl-8-{4-[1-(8-quinolinyl)-4-piperidinyl]-1-piperazinyl}quinoline] |  | 
 | 9.32 | 8.42 | Clc1cc(N2CCN(C3CCN(c4cccc5cccnc45)CC3)CC2)c2ncccc2c1 [Example 11, 6-chloro-8-{4-[1-(8-quinolinyl)-4-piperidinyl]-1-piperazinyl}quinoline] |  | 
7.63 | 9.82 |  | Fc1ccc(N2CCN(C3CCN(c4cccc5cccnc45)CC3)CC2)c2ncccc12 [Example 15] |  | 
 | 9.57 | 9.08 | Fc1cc(N2CCN(C3CCN(c4ccc5cccnc5c4F)CC3)CC2)c2ncccc2c1 [K, 6-Fluoro-8-{4-[1-(8-fluoroquinolin-7-yl)piperidin-4-yl]piperazin-1-yl}quinoline] |  | 
 | 8.92 | 7.53 | COc1cc(N2CCN(C3CCN(c4cccc5cc(C(F)(F)F)cnc45)CC3)CC2)c2ncccc2c1 [L, 8-{4-[4-(6-Methoxyquinolin-8-yl)piperazin-1-yl]piperidin-1-yl}-3-(trifluoromethyl)quinoline] |  | 
